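Where inhibition never reached the appropriate level, the endpoint shown equals the highest concentration tested. Otherwise, values were interpolated linearly from a five-concentration, 48-hour dose response in 96-well plates. Abbreviation: GI50, concentration required for 50% inhibition of growth. TGI: total growth inhibition.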
Tests used:
Test in all cases: NCI tumour cell line growth inhibition, 48 h
COLO 205 colon = test system: COLO 205 colon
SF-295 CNS = test system: SF-295 CNS
LOX IMVI melanoma = test system: LOX IMVI melanoma
NCI/ADR-RES ovarian = test system: NCI/ADR-RES ovarian
RPMI-8226 leukemia = test system: RPMI-8226 leukemia
HS 578T breast = test system: HS 578T breast
SR leukemia = test system: SR leukemia

SMILES: CN(C)/N=N/c1nc2c(c(=O)n(C)c(=O)n2C)n1CC1CO1 (stereo not given)
- TGI (COLO 205 colon): 27.3 µM
- TGI (SF-295 CNS): 56.9 µM
- TGI (LOX IMVI melanoma): 23.7 µM
- TGI (NCI/ADR-RES ovarian): 41.1 µM
- TGI (RPMI-8226 leukemia): 93.1 µM

SMILES: CCOC(=O)c1c(-c2ccccc2)c(OC)cn1C
- TGI (COLO 205 colon): > 10 µM
- TGI (SF-295 CNS): > 10 µM
- TGI (LOX IMVI melanoma): > 10 µM
- TGI (HS 578T breast): > 10 µM
- TGI (NCI/ADR-RES ovarian): > 10 µM
- TGI (RPMI-8226 leukemia): > 10 µM

SMILES: Nc1c(N2CCOCC2)c(=O)nc2[nH]/c(=C\c3ccccc3O)c(=O)n12
- TGI (COLO 205 colon): > 100 µM
- TGI (SR leukemia): > 100 µM
- TGI (SF-295 CNS): > 100 µM
- TGI (LOX IMVI melanoma): > 100 µM
- TGI (HS 578T breast): > 100 µM
- TGI (NCI/ADR-RES ovarian): > 100 µM
- TGI (RPMI-8226 leukemia): 77.3 µM

SMILES: CC(C)=C/C(CC(O)(C(F)(F)F)C(F)(F)F)=N\O
- TGI (COLO 205 colon): > 100 µM
- TGI (SR leukemia): > 100 µM
- TGI (SF-295 CNS): > 100 µM
- TGI (LOX IMVI melanoma): > 100 µM
- TGI (HS 578T breast): > 100 µM
- TGI (NCI/ADR-RES ovarian): > 100 µM
- TGI (RPMI-8226 leukemia): > 100 µM

SMILES: Cc1cccc2c1CC(Cc1ccccc1C(=O)O)C2=O (stereo not given)
- TGI (COLO 205 colon): > 100 µM
- TGI (SR leukemia): > 100 µM
- TGI (SF-295 CNS): > 100 µM
- TGI (LOX IMVI melanoma): > 100 µM
- TGI (HS 578T breast): > 100 µM
- TGI (NCI/ADR-RES ovarian): > 100 µM
- TGI (RPMI-8226 leukemia): > 100 µM

SMILES: CC(=O)/C(=N\Nc1ccc(Cl)cc1)C(C)=Nc1ccc(C)cc1
- TGI (COLO 205 colon): 43.1 µM
- TGI (SR leukemia): > 100 µM
- TGI (SF-295 CNS): > 100 µM
- TGI (LOX IMVI melanoma): > 100 µM
- TGI (HS 578T breast): > 100 µM
- TGI (NCI/ADR-RES ovarian): > 100 µM
- TGI (RPMI-8226 leukemia): > 100 µM

SMILES: N#Cc1c(-c2ccc([N+](=O)[O-])cc2)c(C#N)c(=O)n(NS(=O)(=O)c2ccccc2)c1O
- TGI (COLO 205 colon): > 100 µM
- TGI (SF-295 CNS): > 100 µM
- TGI (LOX IMVI melanoma): > 100 µM
- TGI (NCI/ADR-RES ovarian): > 100 µM
- TGI (RPMI-8226 leukemia): > 100 µM

SMILES: COc1ccc(C2C=C(c3ccc(C)cc3)N(c3ccc(OC)cc3[N+](=O)[O-])C3C(=O)OC(=O)C23)c(OC)c1 (stereo not given)
- TGI (COLO 205 colon): > 100 µM
- TGI (SR leukemia): 61 µM
- TGI (SF-295 CNS): > 100 µM
- TGI (LOX IMVI melanoma): 57 µM
- TGI (HS 578T breast): 57.6 µM
- TGI (RPMI-8226 leukemia): 56.5 µM

SMILES: O=c1c2cc([N+](=O)[O-])ccc2oc2nc3n(c(=O)c12)CCCS3
- TGI (COLO 205 colon): > 100 µM
- TGI (SR leukemia): > 100 µM
- TGI (SF-295 CNS): > 100 µM
- TGI (HS 578T breast): > 100 µM
- TGI (NCI/ADR-RES ovarian): > 100 µM
- TGI (RPMI-8226 leukemia): > 100 µM

SMILES: CC(=O)Oc1ccn2nc(C)c(Br)c2c1
- TGI (COLO 205 colon): 75.5 µM
- TGI (SR leukemia): > 100 µM
- TGI (SF-295 CNS): > 100 µM
- TGI (LOX IMVI melanoma): > 100 µM
- TGI (HS 578T breast): > 100 µM
- TGI (NCI/ADR-RES ovarian): > 100 µM

SMILES: Oc1ccccc1/C=N/N1C(=S)N(C23CC4CC(CC(C4)C2)C3)C(=Nc2ccccc2)C1=Nc1ccccc1
- TGI (COLO 205 colon): > 100 µM
- TGI (SR leukemia): > 100 µM
- TGI (SF-295 CNS): > 100 µM
- TGI (HS 578T breast): > 100 µM
- TGI (NCI/ADR-RES ovarian): > 100 µM
- TGI (RPMI-8226 leukemia): > 100 µM

SMILES: CNC(=S)N1CCN(C(C)=O)C1=S
- TGI (COLO 205 colon): > 100 µM
- TGI (SR leukemia): > 100 µM
- TGI (SF-295 CNS): > 100 µM
- TGI (LOX IMVI melanoma): > 100 µM
- TGI (HS 578T breast): 87.5 µM
- TGI (NCI/ADR-RES ovarian): > 100 µM

SMILES: C=C1[C@@H]2CCC3[C@]4(C)C(CC[C@@]5(C)C(=O)O[C@H](O)[C@@H]45)[C@H](O)[C@]3(C2)[C@H]1OC1OC(CO)C(O)C(O)C1O (stereo not given in full)
- TGI (COLO 205 colon): > 50 µM
- TGI (SF-295 CNS): > 50 µM
- TGI (LOX IMVI melanoma): > 50 µM
- TGI (HS 578T breast): > 50 µM
- TGI (NCI/ADR-RES ovarian): > 50 µM
- TGI (RPMI-8226 leukemia): > 50 µM

SMILES: Cc1cc(-c2ccccc2)nc2oc(=O)n(C)c12
- TGI (COLO 205 colon): > 100 µM
- TGI (SF-295 CNS): > 100 µM
- TGI (LOX IMVI melanoma): > 100 µM
- TGI (HS 578T breast): > 100 µM
- TGI (NCI/ADR-RES ovarian): > 100 µM

SMILES: CC1=NN2C(=N)/C(=C/c3ccc(F)cc3)C(=O)N=C2S1
- TGI (COLO 205 colon): > 100 µM
- TGI (SR leukemia): > 100 µM
- TGI (SF-295 CNS): > 100 µM
- TGI (LOX IMVI melanoma): > 100 µM
- TGI (HS 578T breast): > 100 µM
- TGI (NCI/ADR-RES ovarian): 28.5 µM
- TGI (RPMI-8226 leukemia): > 100 µM

SMILES: COc1ccc(C(=O)/C=C/SC(=NC#N)SC)cc1
- TGI (COLO 205 colon): 38.8 µM
- TGI (SR leukemia): 19.6 µM
- TGI (SF-295 CNS): 76 µM
- TGI (HS 578T breast): 68.3 µM
- TGI (NCI/ADR-RES ovarian): 42.3 µM
- TGI (RPMI-8226 leukemia): > 100 µM

SMILES: COc1ccc([C@]23CCC4(OCC(C)(C)CO4)[C@H]4CON(O[C@H](O[C@@H]5CCCCC5C(C)(C)c5ccccc5)C2)[C@@H]43)cc1OC (stereo not given in full)
- TGI (COLO 205 colon): > 100 µM
- TGI (SR leukemia): 49.4 µM
- TGI (SF-295 CNS): > 100 µM
- TGI (LOX IMVI melanoma): > 100 µM
- TGI (NCI/ADR-RES ovarian): > 100 µM
- TGI (RPMI-8226 leukemia): > 100 µM

SMILES: CO[P@@]1(=O)O[C@@H](c2ccccc2)[C@H](O)[C@]1(O)c1ccccc1
- TGI (COLO 205 colon): > 100 µM
- TGI (SR leukemia): > 100 µM
- TGI (SF-295 CNS): > 100 µM
- TGI (LOX IMVI melanoma): > 100 µM
- TGI (HS 578T breast): > 100 µM
- TGI (NCI/ADR-RES ovarian): > 100 µM
- TGI (RPMI-8226 leukemia): > 100 µM

SMILES: C[C@H]1[C@H](C)CC[C@]2(C(=O)OC3OC(CO)C(O)C(O)C3O)CC[C@]3(C)C(=CC[C@@H]4[C@@]5(C)C[C@@H](O)[C@@H]6OC(=O)c7cc(O)c(O)c(O)c7-c7c(cc(O)c(O)c7O)C(=O)OC[C@@]6(CO)[C@@H]5CC[C@]43C)[C@H]12 (stereo not given in full)
- TGI (COLO 205 colon): > 100 µM
- TGI (SR leukemia): > 100 µM
- TGI (SF-295 CNS): > 100 µM
- TGI (LOX IMVI melanoma): 35.9 µM
- TGI (HS 578T breast): > 100 µM
- TGI (NCI/ADR-RES ovarian): > 100 µM
- TGI (RPMI-8226 leukemia): > 100 µM

SMILES: CC1=C(C)SC(=C2Sc3c(n(C)c(=O)n(C)c3=O)S2)S1
- TGI (COLO 205 colon): > 100 µM
- TGI (SF-295 CNS): > 100 µM
- TGI (LOX IMVI melanoma): > 100 µM
- TGI (HS 578T breast): > 100 µM
- TGI (NCI/ADR-RES ovarian): > 100 µM
- TGI (RPMI-8226 leukemia): > 100 µM

SMILES: O=C1c2cc3c(cc2-c2c1c1ccc(Cl)cc1c(=O)n2CCCn1ccnc1)OCO3
- GI50 (COLO 205 colon): 0.0552 µM
- TGI (COLO 205 colon): > 100 µM
- GI50 (SR leukemia): < 0.01 µM
- TGI (SR leukemia): 0.0677 µM
- GI50 (SF-295 CNS): < 0.01 µM
- TGI (SF-295 CNS): 10 µM
- GI50 (LOX IMVI melanoma): < 0.01 µM
- TGI (LOX IMVI melanoma): 0.0297 µM
- GI50 (HS 578T breast): 1.54 µM
- TGI (HS 578T breast): > 100 µM
- GI50 (NCI/ADR-RES ovarian): < 0.01 µM
- TGI (NCI/ADR-RES ovarian): 15.2 µM
- GI50 (RPMI-8226 leukemia): 0.0215 µM
- TGI (RPMI-8226 leukemia): 0.546 µM

SMILES: CSc1nc(Cl)c2c(n1)Sc1nc3ccccc3n1C2O (stereo not given)
- TGI (COLO 205 colon): > 21.6 µM
- TGI (SF-295 CNS): > 100 µM
- TGI (LOX IMVI melanoma): 3.9 µM
- TGI (HS 578T breast): > 68.8 µM
- TGI (NCI/ADR-RES ovarian): > 24.4 µM
- TGI (RPMI-8226 leukemia): 19.5 µM

SMILES: O=c1c2c3c(sc2nc2n1N=C(c1ccc(Br)cc1)CS2)CCCC3
- TGI (COLO 205 colon): > 100 µM
- TGI (SR leukemia): > 100 µM
- TGI (SF-295 CNS): > 100 µM
- TGI (LOX IMVI melanoma): > 100 µM
- TGI (NCI/ADR-RES ovarian): > 100 µM

SMILES: CC(=N/NC(=S)N(C)C)/C(=N\NC(=S)N(C)C)c1ccccc1
- TGI (COLO 205 colon): 3.33 µM
- TGI (SF-295 CNS): 4.46 µM
- TGI (LOX IMVI melanoma): > 100 µM
- TGI (HS 578T breast): 6.26 µM
- TGI (NCI/ADR-RES ovarian): 4.99 µM

SMILES: O=C1CSC(c2c[nH]c3ccccc23)N1c1ccc(Cl)cc1Cl (stereo not given)
- TGI (COLO 205 colon): > 100 µM
- TGI (SR leukemia): > 100 µM
- TGI (SF-295 CNS): > 100 µM
- TGI (LOX IMVI melanoma): > 100 µM
- TGI (NCI/ADR-RES ovarian): > 100 µM
- TGI (RPMI-8226 leukemia): > 100 µM

SMILES: CC/C=N\N1C(N)=C(C#N)C(C#N)(C#N)C1CC (stereo not given)
- TGI (COLO 205 colon): > 100 µM
- TGI (SF-295 CNS): > 100 µM
- TGI (LOX IMVI melanoma): > 100 µM
- TGI (HS 578T breast): > 100 µM
- TGI (NCI/ADR-RES ovarian): > 100 µM
- TGI (RPMI-8226 leukemia): > 100 µM

SMILES: CCC1(CC)C(=O)N(C(=O)c2cc(OC)c(OC)c(OC)c2)N(C(=O)c2cc(OC)c(OC)c(OC)c2)C1=O
- TGI (COLO 205 colon): > 50 µM
- TGI (SF-295 CNS): > 50 µM
- TGI (LOX IMVI melanoma): > 50 µM
- TGI (HS 578T breast): > 50 µM
- TGI (NCI/ADR-RES ovarian): > 50 µM
- TGI (RPMI-8226 leukemia): > 50 µM

SMILES: CCOC(=O)c1c(SCc2cc(=O)[nH]c(=O)[nH]2)n(-c2ccccc2)c(=S)n(-c2ccccc2)c1=O
- TGI (COLO 205 colon): > 100 µM
- TGI (NCI/ADR-RES ovarian): > 100 µM
- TGI (RPMI-8226 leukemia): > 100 µM
